Experimental data published in patent publication US6737383B1, “Herbicidal oxadiazolidines” (priority 1999, dated 2004).

Tests used:
crabgrass = test: Test B pre/postemergence crabgrass; type: in vivo, Digitaria sanguinalis
Summary of the method: (§1)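 Response is a visual 0-to-10 score relative to untreated plants, where 0 means no effect and 10 means complete control, taken twelve to sixteen days after application. Treatments went onto soil at planting and onto foliage of 1- to 4-leaf plants, using a surfactant-containing non-phytotoxic solvent.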

cocklebur = test: Test B pre/postemergence cocklebur; type: in vivo, Xanthium strumarium
Summary of the method: as §1

sugar beet = test: Test B pre/postemergence sugar beet; type: in vivo, Beta vulgaris
Summary of the method: as §1

wheat = test: Test B pre/postemergence wheat; type: in vivo, Triticum aestivum
Summary of the method: as §1

velvetleaf = test: Test B pre/postemergence velvetleaf; type: in vivo, Abutilon theophrasti
Summary of the method: as §1

bedstraw = test: Test B pre/postemergence bedstraw; type: in vivo, Galium aparine
Summary of the method: as §1

morningglory = test: Test B pre/postemergence morningglory; type: in vivo, Ipomoea hederacea
Summary of the method: as §1

giant foxtail = test: Test B pre/postemergence giant foxtail; type: in vivo, Setaria faberii
Summary of the method: as §1

pigweed = test: Test B pre/postemergence pigweed; type: in vivo, Amaranthus retroflexus
Summary of the method: as §1

wild oat = test: Test B pre/postemergence wild oat; type: in vivo, Avena fatua
Summary of the method: as §1

purple nutsedge = test: Test B pre/postemergence purple nutsedge; type: in vivo, Cyperus rotundus
Summary of the method: as §1

rape = test: Test B pre/postemergence rape; type: in vivo, Brassica napus
Summary of the method: as §1

blackgrass = test: Test B pre/postemergence blackgrass; type: in vivo, Alopecurus myosuroides
Summary of the method: as §1

soybean = test: Test B pre/postemergence soybean; type: in vivo, Glycine max
Summary of the method: as §1

corn = test: Test B pre/postemergence corn; type: in vivo, Zea mays
Summary of the method: as §1

surinam grass = test: Test B pre/postemergence surinam grass; type: in vivo, Brachiaria decumbens
Summary of the method: as §1

[1] = Postemergence, Rate 125 g/ha, scale of 0 to 10 where 0 is no effect and 10 is complete control
[2] = Postemergence, Rate 250 g/ha, scale of 0 to 10, 0 is no effect, 10 is complete control
[3] = Postemergence, Rate 500 g/ha, scale of 0 to 10 where 0 is no effect and 10 is complete control
[4] = Preemergence, Rate 62 g/ha, scale 0 to 10 (0 no effect, 10 complete control)
[5] = Preemergence, Rate 125 g/ha, scale of 0 to 10 where 0 is no effect and 10 is complete control
[6] = Preemergence, Rate 500 g/ha, scale of 0 to 10 where 0 is no effect and 10 is complete control
[7] = Postemergence, Rate 62 g/ha, scale of 0 to 10, 0 is no effect, 10 is complete control

## CC(C)N(C(=O)n1oc(=O)n(CCCC(F)(F)F)c1=O)c1ccccc1 [Compound 585]
crabgrass; [1]
  Plant response rating, Crabgrass: 5
crabgrass; [2]
  Crabgrass plant response rating: 9
crabgrass; [3]
  Plant response rating, Crabgrass: 9
crabgrass; [4]
  Crabgrass plant response rating: 5
crabgrass; [5]
  Crabgrass plant response rating: 8
crabgrass; [6]
  Crabgrass plant response rating: 10
cocklebur; [7]
  Cocklebur plant response rating: 0
cocklebur; [1]
  Plant response rating, Cocklebur: 0
cocklebur; [2]
  Cocklebur plant response rating: 0
cocklebur; [3]
  Plant response rating, Cocklebur: 7
cocklebur; [4]
  Cocklebur plant response rating: 0
cocklebur; [5]
  Cocklebur plant response rating: 0
cocklebur; Preemergence, Rate 250 g/ha
  Cocklebur plant response rating (0 to 10 scale): 0
cocklebur; [6]
  Cocklebur plant response rating: 3
Sugar beet; [1]
  Plant response rating, Sugarbeets: 2
Sugar beet; [2]
  Sugarbeets plant response rating: 4
Sugar beet; [3]
  Plant response rating, Sugarbeets: 7
Sugar beet; [4]
  Sugarbeets plant response rating: 0
Sugar beet; [5]
  Sugarbeets plant response rating: 3
Sugar beet; [6]
  Sugarbeets plant response rating: 6
wheat; [1]
  Plant response rating, Wheat: 2
wheat; [2]
  Wheat plant response rating: 2
wheat; [3]
  Plant response rating, Wheat: 4
wheat; [4]
  Wheat plant response rating: 0
wheat; [5]
  Wheat plant response rating: 3
wheat; [6]
  Wheat plant response rating: 3
velvetleaf; [1]
  Plant response rating, Velvetleaf: 3
velvetleaf; [2]
  Velvetleaf plant response rating: 4
velvetleaf; [3]
  Plant response rating, Velvetleaf: 5
velvetleaf; [4]
  Velvetleaf plant response rating: 0
velvetleaf; [5]
  Velvetleaf plant response rating: 0
velvetleaf; [6]
  Velvetleaf plant response rating: 6
bedstraw; [7]
  Bedstraw plant response rating: 0
bedstraw; [1]
  Plant response rating, Bedstraw: 8
bedstraw; [4]
  Bedstraw plant response rating: 7
bedstraw; [5]
  Bedstraw plant response rating: 8
bedstraw; Preemergence, Rate 250 g/ha
  Bedstraw plant response rating (0 to 10 scale): 9
bedstraw; [6]
  Bedstraw plant response rating: 8
morningglory; [7]
  Morningglory plant response rating: 4
morningglory; [1]
  Plant response rating, Morningglory: 8
morningglory; [2]
  Morningglory plant response rating: 10
morningglory; [3]
  Plant response rating, Morningglory: 10
morningglory; [4]
  Morningglory plant response rating: 0
morningglory; [5]
  Morningglory plant response rating: 0
morningglory; [6]
  Morningglory plant response rating: 5
Giant foxtail; [7]
  Giant foxtail plant response rating: 6
Giant foxtail; [1]
  Plant response rating, Giant foxtail: 6
Giant foxtail; [2]
  Giant foxtail plant response rating: 8
Giant foxtail; [3]
  Plant response rating, Giant foxtail: 9
Giant foxtail; [4]
  Giant foxtail plant response rating: 7
Giant foxtail; [5]
  Giant foxtail plant response rating: 6
Giant foxtail; [6]
  Giant foxtail plant response rating: 10
pigweed; [1]
  Plant response rating, Redroot pigweed: 0
pigweed; [2]
  Redroot pigweed plant response rating: 3
pigweed; [3]
  Plant response rating, Redroot pigweed: 7
pigweed; [4]
  Redroot pigweed plant response rating: 6
pigweed; [5]
  Redroot pigweed plant response rating: 9
pigweed; [6]
  Redroot pigweed plant response rating: 10
Wild oat; [1]
  Plant response rating, Wild oats: 0
Wild oat; [2]
  Wild oats plant response rating: 0
Wild oat; [3]
  Plant response rating, Wild oats: 2
Wild oat; [4]
  Wild oats plant response rating: 0
Wild oat; [5]
  Wild oats plant response rating: 3
Wild oat; [6]
  Wild oats plant response rating: 9
Purple nutsedge; [7]
  Nutsedge plant response rating: 0
Purple nutsedge; [1]
  Plant response rating, Nutsedge: 0
Purple nutsedge; [2]
  Nutsedge plant response rating: 0
Purple nutsedge; [3]
  Plant response rating, Nutsedge: 0
Purple nutsedge; [4]
  Nutsedge plant response rating: 0
Purple nutsedge; [5]
  Nutsedge plant response rating: 0
Purple nutsedge; [6]
  Nutsedge plant response rating: 10
rape; [7]
  Rape plant response rating: 0
rape; [1]
  Plant response rating, Rape: 3
rape; [2]
  Rape plant response rating: 5
rape; [3]
  Plant response rating, Rape: 5
rape; [4]
  Rape plant response rating: 3
rape; [5]
  Rape plant response rating: 8
rape; [6]
  Rape plant response rating: 10
blackgrass; [7]
  Blackgrass plant response rating: 3
blackgrass; [1]
  Plant response rating, Blackgrass: 6
blackgrass; [2]
  Blackgrass plant response rating: 6
blackgrass; [3]
  Plant response rating, Blackgrass: 7
blackgrass; [4]
  Blackgrass plant response rating: 3
blackgrass; [5]
  Blackgrass plant response rating: 8
blackgrass; Preemergence, Rate 250 g/ha
  Blackgrass plant response rating (0 to 10 scale): 8
blackgrass; [6]
  Blackgrass plant response rating: 8
soybean; [1]
  Plant response rating, Soybean: 0
soybean; [2]
  Soybean plant response rating: 4
soybean; [3]
  Plant response rating, Soybean: 3
soybean; [4]
  Soybean plant response rating: 0
soybean; [5]
  Soybean plant response rating: 0
soybean; [6]
  Soybean plant response rating: 3
corn; [7]
  Corn plant response rating: 0
corn; [1]
  Plant response rating, Corn: 0
corn; [2]
  Corn plant response rating: 0
corn; [3]
  Plant response rating, Corn: 5
corn; [4]
  Corn plant response rating: 0
corn; [5]
  Corn plant response rating: 2
corn; Preemergence, Rate 250 g/ha
  Corn plant response rating (0 to 10 scale): 3
corn; [6]
  Corn plant response rating: 5
Surinam grass; [7]
  B. signalgrass plant response rating: 0
Surinam grass; [1]
  Plant response rating, B. signalgrass: 0
Surinam grass; [2]
  B. signalgrass plant response rating: 0
Surinam grass; [3]
  Plant response rating, B. signalgrass: 7
Surinam grass; [4]
  B. signalgrass plant response rating: 3
Surinam grass; [5]
  B. signalgrass plant response rating: 8
Surinam grass; Preemergence, Rate 250 g/ha
  B. signalgrass plant response rating (0 to 10 scale, 0 is no effect, 10 is complete control): 9
Surinam grass; [6]
  B. signalgrass plant response rating: 9
